Data from patent publication US7318924B2, “Antibodies against cancer” (The Austin Research Institute, priority 2001, dated 2008).
≈ marks a conversion by molar mass, not a printed value.

How the values were obtained:
p38 = p38 activation in LS174T cells; assay type: cell-based, human; details: 3 hours; C3 5, 10 μg/ml; Cisplatin 25, 50 μg/ml
Experimental: (§1) P38 was not affected by C3 but was activated by Cisplatin.
The stress related p38 pathway was also investigated in LS174T cells following anti-Cripto-1 Mab treatment. p38 activation occurred following 48 hours of Mab exposure, when the level of activated JNK declined. p38 was further activated at 72 hours when elevated JNK returned to basal level (FIG. 8D). […] The potentiation of Cisplatin cytotoxicity by anti-Cripto-1 Mabs (FIG. 1) is accompanied by an increase in JNK phosphorylation (FIG. 8A) and p38 MAPK (FIG. 8B).

JNK/SAPK = experiment: JNK activation in LS174T cells; assay type: cell-based, human; details: 3 hours; C3 5, 10 μg/ml; Cisplatin 25, 50 μg/ml
Experimental: as §1
The role of JNK and p38 activation in anti-Cripto-1 mediated apoptosis was investigated in colon cancer LS17T cell line using different concentration of Mabs and various times of incubation. In particular, JNK/SPAK was activated in LS174T cells following 3 hours incubation with anti-Cripto-1 Mab in a dose dependent manner (FIG. 8A). JNK activation was at the highest level after 24 hours of exposure (FIGS. 8B and 8D), and declined within 48 h, returning to basal level at 72 hours of incubation (FIG. 8D) indicating JNK activation by anti-Cripto1 antibodies is time dependent

mouse thyoma E3 cells = experiment: Growth of mouse thymoma E3 cells; assay type: cell-based; details: read-out: Ic50 concentration
Source text: (§2) Therefore, C4 can overcome drug resistance which is a common problem in acute leukemia.

CEM/A7 = experiment: Growth of leukaemia cell line CEM/A7; assay type: cell-based, human
Source text: as §2

CEM/A7R = experiment: Growth of drug resistant leukaemia cell line CEM/A7R; assay type: cell-based, human
Source text: Thus, this cell line is normally resistant to a variety of naturally derived chemotherapeutic agents.
as §2

IC50 (mouse thyoma E3 cells)	SMILES	p38 activation (p38)	JNK activation (JNK/SAPK)	resistance to Epirubicin compared to E3 (CEM/A7)	resistance to Epirubicin compared to E3 (CEM/A7R)
–	N.N.[Cl][Pt][Cl] [Cisplatin]	activated	induced	–	–
0.02 µg/mL (≈ 0.0368 µM)	COc1cccc2c1C(=O)c1c(O)c3c(c(O)c1C2=O)C[C@@](O)(C(=O)CO)C[C@@H]3O[C@H]1C[C@H](N)[C@@H](O)[C@H](C)O1 [Epirubicin]	–	–	around 80 fold	~40 fold
